Test results reported in paper PMC10590756, “Glutarate regulates T cell metabolism and anti-tumour immunity” (Nature Metabolism, 2023).

How the values were obtained:
[1] = system: B16F10-OVA melanoma tumours; experiment: B16F10-OVA tumour growth and infiltration model; format: in vivo, C57BL/6J mice
Description: Seven to 10-week-old male C57BL/6J mice were inoculated subcutaneously with 1.0 × 10^6 B16F10-OVA. Animals were assigned randomly to each experimental group. Four days after inoculation, mice were treated with a peritoneal injection of 0.2 mg DEG (approximately 10 mg kg^−1). Treatment was repeated every 2–3 days until day 28. Tumour volume was measured every 2–3 days with electronic callipers until day 30. Peripheral blood was collected from the tail vein at day 7 and 14 days after tumour inoculation and analysed using flow cytometry. On day 14, tumours were dissected and dissociated using the Tumor Dissociation Kit (catalogue no. 130-095-929, Miltenyi Biotec), according to the manufacturer’s instructions. Spleen and the tumour-draining lymph node were mashed in cell strainers. The tumour, spleen and draining lymph node single-cell suspensions were stained with fluorochrome-labelled antibodies and analysed using flow cytometry. The tumour experiments using C57BL/6J mice were carried out in accordance with the ethical regulations of the UK Home Office and the maximal tumour burden of […] was not exceeded (mice were euthanized when tumour volume exceeded […]).

murine CD8^+ T cells = experiment: Cell growth and viability of murine CD8^+ T cells; format: cell-based; details: 7 days
Description: After 7 days of culture, we assessed the abundance of CD62L^hiCD44^hi (TCM-like) T cells by flow cytometry (Fig. 1a). We additionally determined the effect of each compound on cell growth and viability (Fig. 1b and Extended Data Fig. 1a).
B16F10 cells were originally purchased from ATCC (catalogue no. CRL-6475) and genetically modified to express OVA, enhanced green fluorescent protein (GFP) and neomycin phosphotransferase. The resulting OVA expression B16F10-OVA cells were cultured in DMEM (catalogue no. 11995065, Thermo Fisher Scientific) containing 0.75 mg ml^−1 G418 sulphate (catalogue no. 10131027, Thermo Fisher Scientific). HEK 293T cells were purchased from Takara Bio (catalogue no. 632180) and cultured in DMEM. SKOV3 was purchased from ATCC (catalogue no. HTB-77) and cultured in McCoy’s 5A (Modified) Medium (catalogue no. 16600082, Thermo Fisher Scientific). Raji-GFP-Luc cells were purchased from Biocytogen (catalogue no. B-HCL-010) and cultured in Roswell Park Memorial Institute (RPMI) 1640 (catalogue no. 21875, Thermo Fisher Scientific). Jurkat cells were purchased from ATCC (catalogue no. TIB-152) and cultured in RPMI 1640. RAW 264.7 cells were purchased from ATCC (catalogue no. TIB-71) and cultured in RPMI 1640. HeLa cells were a gift from P. Lehner (University of Cambridge) and were authenticated using short tandem repeat profiling (Eurofins Genomics). HeLa cells were cultured in DMEM. MEFs were isolated from macerated embryonic day (E) 12.5–13.5 embryos. A whole litter of embryos without sex selection were used. Stable transfection with SV40 large T antigen passage 3 was used for immortalization. Cells were subcultured over 17 more passages and maintained in DMEM[63]. All media was supplemented with 10% FCS (catalogue no. 10270106, Gibco), 100 U ml^−1 penicillin and 100 µg ml^−1 streptomycin (catalogue no. P4333, Sigma-Aldrich). […] Cell number and viability was determined using the ADAM-MC Automated Cell Counter (NanoEntek), CellDrop Automated Cell Counter (DeNovix) or TC20 Automated Cell Counter (Bio-Rad Laboratories). […]

[2] = 14 days after tumour inoculation, relative to controls

CCOC(=O)CCCC(=O)OCC [DEG, Diethyl glutarate]
survival ([1]; 10 mg kg^−1 DEG intraperitoneally every 48–72 h, 1,000 mm^3 tumour volume as threshold): significantly increased survival | tumour growth ([1]; 10 mg kg^−1 DEG intraperitoneally every 48–72 h from day 4): significantly slowed tumour growth | peripheral blood CD8^+ T cells [1, 2]: significant increase | tumour-infiltrating CD8^+ T cells [1, 2]: significant increase | other immune populations ([1]; blood, tumour, spleen, tumour-draining lymph node, day 14): No changes | circulating B cells ([1]; day 14): slight decrease | exhaustion-associated markers (TIM3, PD1, LAG3, TOX) in tumour-infiltrating CD4^+ or CD8^+ cells ([1]; day 14): no changes | memory-associated markers (CD62L and CD44) in tumour-infiltrating CD4^+ or CD8^+ cells ([1]; day 14): no changes | cell viability or proliferation (murine CD8^+ T cells; 400 µM): no negative effects | cell growth (murine CD8^+ T cells; even at 1-mM concentrations): did not display any negative effects
